According to patent publication US8168199B2, “Dipeptidyl peptidase IV inhibitors for the treatment of schizophrenia and depression” (priority 2000, dated 2012):

Legend:
[1] = tested on: Male WistarF/Han (WF) rats; assay: Social interaction (SI) test with Y1R antagonist BIBP3226, P32/98 and NPY (Example 4); type: in vivo, rat
Experimental: (§1) Animals. Male WistarF/Han (WF) rats (Central Animal Laboratory, Hannover Medical School, Hannover, Germany, weighing 330±31 g±SD, were housed in a sound-proof, temperature controlled (24.0±0.5° C.) room under specific pathogen free conditions with a 12/12 h dark/light cycle (lights on at 07.00 with illumination level of 80 Lux). Food (Altromin lab chow pellets) and tap water were available ad libitum. Under ketamine/xylasine (100/5 mg/kg, i.p.) anesthesia, the rats were fixed in a Kopf stereotaxic frame and implanted with cannulae (Plastic One, Inc., Roanoke, Va., USA) above the lateral ventricle. All research and animal care procedures were approved by the Lower Saxony district government (Hannover, Germany) and followed principles described in the European Community's Council Directive of 24 Nov. 1986 (86/609/EEC).
(§2) Surgery and i.c.v. application. […]
(§3) Animals were randomly divided into eight experimental groups (n=6-8/group), which completed one SI test of anxiety: (1) aCSF+aCSF+aCSF; (2) BIBP+aCSF+aCSF; (3) aCSF+P32/98+aCSF; (4) BIBP+P32/98+aCSF; (5) aCSF+aCSF+NPY; (6) BIBP+aCSF+NPY; (7) aCSF+[…]+NPY; (8) BIBP+P32/98+NPY. […] The time spent in active social interaction (SI-time), 1 h, and 12 h food-intake were measured. […]
Social interaction (SI) test. […] Behavior was monitored using a video camera placed above the field inside the testing/isolation box. The SI behavior of both rats was recorded on-line from a monitor placed outside on top of the box. The following parameters were scored by an observer (HPN) unaware of the substrain of rats: duration of time spent in sniffing, following, crawling under and over other rats, but not passive body contact (resting, sleeping). […]
(§4) Statistical analysis. Data obtained from the measures SI time and 1 h food intake were analyzed by one-way (factor: “treatment”) ANOVA. […]

[2] = tested on: Male WistarF/Han (WF) rats; assay: 1 h food-intake with Y1R antagonist BIBP3226, P32/98 and NPY (Example 4); type: in vivo, rat; settings: i.c.v. BIBP3226 100 nmol
Experimental: as §1, §2, §3, §4

[3] = i.c.v. injection; cited from earlier work
rats = settings: administered into the dorsal periaqueductal gray matter; cited from earlier work
[4] = tested on: Male WistarF/Han (WF) rats; assay: 1 h and 12 h food-intake after i.c.v. P32/98 and NPY (Example 3); type: in vivo, rat; settings: i.c.v. P32/98 5 pmol-500 nmol, NPY 50 pmol-1.6 nmol; dark cycle
Experimental: as §1, with “330-370 g,” for “330±31 g±SD,”
Surgery and i.c.v. application. For surgery, rats were anesthetized and prepared with i.c.v. cannulae (coordinates: A: −0.7 mm caudal, L: 1.4 mm lateral to bregma; and V3.2 mm ventral to the skull surface; tooth bar +3.0 above ear bars) using standard stereotaxic procedures as described in detail elsewhere (von Hörsten et al., 1998a, b, c). After a 7-day recovery period, successful ventricle cannulation was confirmed by an angiotensin drinking response (von Hörsten et al., 1998a). Rats showing a positive drinking response (n=59) were then habituated to experimental handling by daily sham injections for seven days.
Animals were randomly divided into two sets of four experimental groups (n=5-6/group), which completed different consecutive SI test of anxiety. […] The time spent in active social interaction (SI-time), 1 h and 12 h food-intake were measured. […]
Statistical analysis. Data from repeated observations (food intake) were analyzed by two-way analyses of variance for repeated measures (ANOVA) (factors: “substrain” and “food intake” as repeated measure). Data obtained from simple measures such as DPIV activity or SI time were analyzed by one-way (factor: “substrain”) ANOVA. […]

dipeptidyl peptidase IV = target: T1, dipeptidyl peptidase IV (Homo sapiens, UniProt P27487); settings: human serum incubated with neuropeptide Y or peptide YY; cited from earlier work
T1 construct: from tissue; host or cells: human serum
T1 sequence (P27487 39-766 limits assumed): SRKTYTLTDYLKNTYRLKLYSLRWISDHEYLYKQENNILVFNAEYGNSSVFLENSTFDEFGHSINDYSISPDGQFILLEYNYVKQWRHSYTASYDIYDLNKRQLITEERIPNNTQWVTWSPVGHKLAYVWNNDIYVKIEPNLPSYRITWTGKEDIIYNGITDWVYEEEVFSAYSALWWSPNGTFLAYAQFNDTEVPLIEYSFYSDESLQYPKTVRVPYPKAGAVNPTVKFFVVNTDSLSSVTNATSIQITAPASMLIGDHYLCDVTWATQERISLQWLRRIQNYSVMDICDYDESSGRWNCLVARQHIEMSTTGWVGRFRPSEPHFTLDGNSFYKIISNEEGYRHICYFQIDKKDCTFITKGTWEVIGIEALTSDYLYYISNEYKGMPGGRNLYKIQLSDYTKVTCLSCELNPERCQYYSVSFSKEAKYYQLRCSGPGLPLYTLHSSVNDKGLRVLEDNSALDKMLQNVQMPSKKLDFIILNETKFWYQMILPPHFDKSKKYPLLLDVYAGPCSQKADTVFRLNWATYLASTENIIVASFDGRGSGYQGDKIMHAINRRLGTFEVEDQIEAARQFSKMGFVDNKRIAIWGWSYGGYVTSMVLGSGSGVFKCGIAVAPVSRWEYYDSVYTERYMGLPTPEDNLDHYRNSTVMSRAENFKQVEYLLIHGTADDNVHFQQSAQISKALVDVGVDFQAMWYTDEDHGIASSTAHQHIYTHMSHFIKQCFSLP

Question: What does the source list for `NC(N)=NCCC[C@@H](NC(=O)C(c1ccccc1)c1ccccc1)C(=O)NCc1ccc(O)cc1` [BIBP3226]?
Answer: effect of Y1 receptor antagonist pre-treatment on P32/98-induced potentiation of NPY anxiolysis (SI behavior) ([1]; i.c.v. BIBP3226 100 nmol, P32/98 50 nmol, NPY 0.8 nmol): can block; effect of Y1 R blockade on 1 h feeding effects [2]: only partly affected; anxiety-related behavior in the elevated plus-maze test [3]: anxiogenic-like effects; locomotor effect in the elevated plus-maze test [3]: without any locomotor deficit; time spent in active social interaction (rats): decreased

Question: Which “amount of food eaten within 1 h” value [4] does the source give for “Rat neuropeptide Y1-36 [NPY, reference compound]” here?
Answer: “u-shaped” dose-dependent feeding effect

Question: What about the “SI-time, NPY alone” value ([1]; i.c.v. 0.8 nmol) of the same compound?
Answer: anxiolytic-like effect

Question: With Ile-Pro-Ile [diprotin A] as the compound, how does the “formation of Tyr-Pro in serum” value (dipeptidyl peptidase IV) read?
Answer: blocked

Question: For `NCCCC[C@H](N)C(=O)N1CCCC1` [Lys-pyrrolidine], which “formation of Tyr-Pro in serum” value (dipeptidyl peptidase IV) is on record?
Answer: blocked
